Broadly, the melting point is the temperature, or range, at which the solid turns liquid.

Where only a bound is given, the exact number is not on record here.

Molecule `CCOC(=O)CCc1cc(-c2ccccc2)n(-c2ccc(S(C)(=O)=O)cc2)n1` showed a melting point of 96.5 to 99.1 °C.

For `CN1C(=O)C(NC(=O)NC23CC4CC(CC(C4)C2)C3)N=C(c2ccccc2)c2ccccc21` (stereo unspecified), the melting point was in the range of 264 to 265 °C.

In turn, `CCCN(CCN1CCN(c2ccc3[nH]ccc3c2)CC1)C1CCc2ccc(O)cc2C1` (stereo unspecified) displayed a melting point of 179 to 183 °C.

In turn, `COC(=O)NCc1cccc(-c2ccccc2)c1` displayed a melting point of 49 to 52 °C.

The molecule `Oc1c(Cl)cc(-c2ccco2)cc1Cl` showed a melting point of 68 to 70 °C.

`C[C@@H]1O[C@](C#CC2CC2)(C(F)(F)F)c2cc(Cl)ccc2NC1=O` registered a melting point of 145 to 146 °C.

Molecule `COc1cc2c(N3CCN(C(=O)Nc4ccc(Oc5ccccc5)cc4)CC3)ncnc2cc1OCc1ccccc1` gave a melting point of 220 to 221 °C.

Take `O=C(O)c1ccc(-c2nc(-c3cccc(C(F)(F)F)c3)co2)cc1`: the melting point lay in the range of 253 to 254 °C.

`COc1ccc(-c2cccc(-c3nc(C(C)C)[nH]c3-c3cccc(C)n3)c2)cc1` yielded a melting point of 75 to 77 °C.

The molecule `NS(=O)(=O)c1cc2cc[nH]c(=O)c2s1` came in with a melting point of 295 to 297 °C.

The molecule `Cc1oc(-c2ccccc2)nc1COc1cc(CCl)ccn1` came in with a melting point of 104 to 105 °C.

As to `COc1ccc(COC(=O)C2=C(C3CCCO3)OC[C@@H]3[C@H](NC(c4ccccc4)(c4ccccc4)c4ccccc4)C(=O)N23)cc1` (stereo partly specified), the melting point fell in the range of 129 to 131 °C.

The molecule `O=C1c2c(F)cc(F)c(F)c2C(=O)N1c1ccccc1` gave a melting point of 183 to 185 °C.

`CC(=O)NC12CC1CN(c1nc3c(cc1F)c(=O)c(C(=O)O)cn3C1CC1)C2` (stereo unspecified) had a melting point of 275 °C.

`CC(CN(C)c1ccccc1)NCC(O)c1ccc(O)c(C(N)=O)c1` (stereo unspecified) came in with a melting point of 143 to 145 °C.

Molecule `CC(=O)OC1CC2(C)C(=O)CCC2C2C=CC3=CC(=O)CCC3C12` (stereo unspecified) showed a melting point of 246 to 248 °C.

As to `CCC1(C)C(=O)c2c(cc(OC)c(Cl)c2Cl)C1c1ccccc1` (stereo unspecified), the melting point stood at 132 °C.

Consider `CC(C)Nc1cccnc1N1CCN(C(=O)c2ccc(C(=O)N(C)CC3OCCO3)cc2)CC1`, for which the melting point was in the range of 102 to 104 °C.

For `CC(=O)Nc1c(C#N)ccc(C#N)c1[N+](=O)[O-]`, the melting point was 232 to 233 °C.

Molecule `COc1ccccc1CNc1ccc2c(CNC(=O)c3ccc(F)cc3)cccc2n1` displayed a melting point of 162 °C.

For `NS(=O)(=O)c1cc(C(=O)O)cc([N+](=O)[O-])c1Oc1cccc(Cl)c1`, the melting point is 230 to 232 °C.

Molecule `O=[PH](c1ccc(N2CCCC2)cc1)c1ccc(N2CCCC2)cc1` returned a melting point of 199 °C.

`Nc1noc(-c2ccc(CN3CCCCCC3)s2)n1`: the melting point fell in the range of 135 to 136 °C.

For `CCc1nc2c(N)nc3ccccc3c2n1CCCCSc1ncccn1`, the melting point was 182 to 185 °C.

With `CC(C)C1(Cl)Cc2cc(OCC(=O)O)cc(Cl)c2C1=O` (stereo unspecified), the melting point worked out at 142 °C.

The molecule `Cc1ccc(Cl)cc1-c1cccc2c1OC(CN)C2` (stereo unspecified) gave a melting point of 146 to 150 °C.

Consider `CC(C)c1nc(CN2C(=O)C3(COc4cc5c(cc43)OCO5)c3c(-c4ccc(N(C)C)nc4)cccc32)cs1` (stereo unspecified), for which the melting point lay in the range of 164 to 165 °C.

As for `CN1NC(=O)CC1c1ccccc1` (stereo unspecified), the melting point lay within 160 to 161 °C.

In turn, `N#CCc1ccc(NS(=O)(=O)c2ccc(N3CCNC3=O)cc2)cc1` yielded a melting point of 204 to 206 °C.

`Clc1ccc(OC2CC3CCC(C2)N3Cc2nccs2)cc1Cl` (stereo unspecified): the melting point lay within 123 to 124 °C.

Regarding `COC(=O)c1ccc(OCC(C)NCC(O)c2cccc(Cl)c2)c(C(=O)OC)c1` (stereo unspecified), the melting point is 112 °C.

In the case of `Brc1ccccc1Cn1c(-c2ccc3c(c2)OCO3)nc2ccccc21`, the melting point lay in the range of 122 to 124 °C.

Consider `Cc1cn(-c2cc(NC(=O)c3ccc(C)c(C#Cc4ccc(NC(C)C)nn4)c3)cc(C(F)(F)F)c2)cn1`, for which the melting point was in the range of 192 to 194 °C.

Molecule `COC(=O)COc1ccc(C(=O)CN2CCN(c3ccnc(C)c3)CC2)cc1` gave a melting point of 155 to 157 °C.

In turn, `CCOC(=O)C1=C[C@@H](OC(CC)CC)[C@@H](NC(C)=O)[C@H](O)[C@@H]1O` yielded a melting point of 154 °C.

In turn, `O=S(=O)(c1ccccc1)c1c[nH]c2ccc(CCO)cc12` gave a melting point of 55 to 60 °C.

`CCCCCCCCCC(C)NC(=O)C=C(C)c1cccc([N+](=O)[O-])c1` (stereo unspecified) showed a melting point of 72.5 to 74 °C.

Molecule `CN1CCN(c2cc(Cl)cc3c2c(=O)n(Cc2cccc(Br)c2)c(=O)n3Cc2ccccc2)CC1` displayed a melting point of 154 to 157 °C.

The molecule `COc1cc2cncnc2cc1OC` displayed a melting point of 235 to 237 °C.

Turning to `O=c1nc(-c2ccccn2)sc2cc(F)ccc12`, the melting point amounted to 250 °C.

As for `CNC(=O)NS(=O)(=O)c1ccccc1CCC(F)(F)F`, the melting point lay within 176 to 177 °C.

Turning to `O=C1Cc2cccc3c2N1CCC3`, the melting point lay within 90 to 93 °C.

`COc1cccc2c1CN(c1c(F)cc3c(=O)c(C(=O)O)cn(-c4ccc(F)cc4)c3c1F)C2` showed a melting point of 278 to 284 °C.

For `CCOC(=O)C=C[C@H](Cc1ccc(-c2ccccc2)cc1)NC(=O)OC(C)(C)C`, the melting point lay in the range of 91 to 94 °C.

The molecule `CC(C)C(CNC(=O)OCc1ccccc1)C(=O)O` (stereo unspecified) came in with a melting point of 75.5 to 78.5 °C.

The molecule `CCCn1c(=O)c2[nH]c(/C=C/c3ccc(OC)c(C)c3C)nc2n(CCC)c1=O` registered a melting point of 271 °C.

`CC1=C(c2ccccc2)C(c2ccccc2Cl)C([N+](=O)[O-])=C(C)N1` (stereo unspecified) yielded a melting point of 232 °C.

For `O=[N+]([O-])c1cccc(-c2cnc3[nH]c4ccccc4c3c2)c1`, the melting point was greater than 220 °C.

With `COc1ccc(C(=NO)c2sccc2Br)cc1`, the melting point fell in the range of 110 to 115 °C.

`OC(CNCCCCCCOCCCCc1ccccc1)c1ccc2c(n1)COC(c1ccccc1)O2` (stereo unspecified) had a melting point of 67 to 73 °C.

In turn, `CC1=N/C(=C\c2c[nH]c3ncccc23)C(=O)N1Cc1ccccc1` registered a melting point of 274 to 275 °C.

Regarding `S=C(N/N=C/c1cccnc1)Nc1ccccc1`, the melting point was in the range of 208 to 210 °C.

`Cc1ccnc2c1nc(C)n2-c1ccccc1` yielded a melting point of 117 to 119 °C.

Regarding `CC(C)(C)OC(=O)N[C@@H](CCCCNC[C@H](O)CCl)C(=O)OC(C)(C)C`, the melting point is 87 to 88 °C.

Molecule `COC(=O)c1nc(-c2ccccc2)ccc1Oc1nc(OC)cc(OC)n1` displayed a melting point of 92 to 94 °C.

Turning to `N=C(Nc1ccc2c(c1)CN1CCOCC1C2)c1cccs1` (stereo unspecified), the melting point is 190 to 194 °C.

`C=CCN(CC=C)c1nc(NC2CC(C)(C)NC(C)(C)C2)nc(NC(C)(C)CC(C)(C)C)n1` gave a melting point of 180 °C.

Molecule `CC(C)OC(=O)c1ccc(OCc2ccccc2)cc1` returned a melting point of 62 to 63 °C.

With `CCCOc1ccccc1-c1nc2nc(N(C)C)nnc2c(=O)[nH]1`, the melting point is 258 to 259 °C.

Molecule `O=[N+]([O-])c1cccc(NC(=S)NCc2cccnc2)c1` displayed a melting point of 159 °C.

On to `COc1nsc(N[C@@H](CC(C)C)C(=O)N2CCC[C@H]2C(=O)O)n1`, for which the melting point was in the range of 89 to 92 °C.

In turn, `Cc1cccc(-c2nc(N)sc2-c2ccnc(-c3ccc(OCc4cn(C)cn4)cc3)c2)n1` gave a melting point of 226 to 228 °C.

In turn, `CC(C)C/C=C(\C[C@H](N)C(=O)O)C(=O)O` had a melting point of 190 to 199 °C.

As to `CC1(C)CC(=O)c2c(Oc3ccccc3)sc(-c3cc[nH]n3)c2C1`, the melting point was 232 to 234 °C.

`N=C(N)Nc1nc(-c2nc(N)n[nH]2)cs1` displayed a melting point of 173 to 175 °C.

Molecule `CC(C)c1ccc2c(c1)c(SCC1CC1)c(CC(C)(C)C(N)=O)n2Cc1ccc(Cl)cc1` returned a melting point of 137 to 138 °C.

`O=C(O)CCCC1Cc2ccc(F)cc2C1=O` (stereo unspecified) had a melting point of 106 to 107 °C.

In turn, `O=c1c2ccccc2nc(-c2cc(-c3ccccc3)c(N3CCOCC3)s2)n1-c1ccc(Cl)cc1` displayed a melting point of 223 to 224 °C.

Molecule `CCOC(=O)c1cc(OC)c(OCc2nc(C)c(C)nc2C)c(OC)c1` returned a melting point of 122 to 123 °C.

`CC1(C(O)C(c2cccc(Cl)c2)n2ccnc2)COC1` (stereo unspecified): the melting point fell in the range of 145 to 146 °C.

In the case of `O=C(CC1CCCCC1=O)c1ccc(O)cc1` (stereo unspecified), the melting point lay within 120 to 125 °C.

Molecule `O=C(O)c1ccc(COCc2csc3nc(C(=O)NCc4ccc(F)c(F)c4)[nH]c(=O)c23)cc1` returned a melting point of 249 to 251 °C.

In the case of `COc1cccc(C=O)c1OC(C)=O`, the melting point was 75.4 to 76.2 °C.

As to `Cc1ccccc1Nc1nc(Cl)c2sccc2n1`, the melting point lay in the range of 87 to 89 °C.

`COc1cc2c(cc1OC)N(C)C(=O)CN=C2c1ccc(Cl)c(Cl)c1` showed a melting point of 174 to 177 °C.

Molecule `CCOC(=NC(=O)Nc1ccc(OC(F)(F)F)cc1)c1ccccc1Cl` returned a melting point of 86 to 89 °C.

The molecule `CCOC(=O)c1cc(NC(=O)C2=C(CC)OCCS2)ccc1Cl` had a melting point of 86 to 88 °C.

Turning to `Cc1ccc(C(=O)NN(C(=O)c2cc(Cl)sc2Cl)C(C)(C)C)cc1`, the melting point was 163 to 165 °C.

On to `CC(C)n1cnc2c(Nc3ccncc3)nc(F)nc21`, for which the melting point lay within 105 to 106 °C.

Molecule `CCCCc1nc(=O)c2cc(I)ccc2[nH]1` had a melting point of 258 to 260 °C.

For the molecule `CC(C)(C)c1cc(CNn2ccnc2N2CCOCC2)cc(C(C)(C)C)c1O`, the melting point was 161 to 163 °C.

The molecule `NC1=NN(c2ccccn2)C(c2ccccc2)C1` (stereo unspecified) had a melting point of 203 to 206 °C.

As for `CCNc1cccc(-c2ccnc3c(C(=O)c4ccccc4)cnn23)c1`, the melting point is 98 to 99 °C.

`Cc1ccc(C(=O)CC(=O)C2CC2)c(S(C)(=O)=O)c1` registered a melting point of 129 to 131 °C.

`COc1ccc(C2=NNC(=O)Cc3cc4c(cc32)OCO4)cc1` showed a melting point of 194 to 196 °C.

Molecule `NCCCn1cnc(-c2ccc(F)cc2)c1-c1ccncc1` returned a melting point of 81 to 82 °C.

As to `CCN(CC)Cc1nc(-c2ncn3c2[C@@H]2CCCN2C(=O)c2c(Cl)cccc2-3)no1`, the melting point was in the range of 151 to 153 °C.

In the case of `O=c1c(-c2ccccc2)ccc2n1CCSc1ccsc1-2`, the melting point lay within 139 to 141 °C.

In turn, `COc1ccc(/C=C(\C)[N+](=O)[O-])cc1OCc1ccccc1` displayed a melting point of 102 to 104 °C.

Molecule `COc1cccc2c1CCC1=C2CC(=O)N1` displayed a melting point of 220 to 222 °C.

In turn, `CC(C)NCC(O)COc1ccc(NC(=O)N(C)C)cc1Cl` (stereo unspecified) showed a melting point of 130 °C.

The values above are taken from a melting point compilation (Tetko et al.; mined from patent text by program, amines drawn as free bases though some values may be those of a salt).
